The results in this text go back to patent US11524082B2, “FBSA-based therapeutic and radioimaging conjugates targeting carbonic anhydrase positive cancers” (priority 2017, dated 2022).

Each structure is given as a SMILES string. Entries after “also recorded” stand apart in the source; their conditions may differ.

One series deals with HT-29 xenografts. The series can be described thus: In vivo efficacy of tubulysin conjugates in HT-29 xenograft tumors. Set-up: species or system mice. Here is the method: (§1) Athymic nu/nu mice were purchased from Harlan Laboratories (ENVIGO), housed in a sterile environment on a standard 12 hour light-dark cycle and maintained on normal rodent chow. All animal procedures were approved by the PURDUE Animal Care and Use Committee in accordance with National Institutes of Health guidelines.
In Vivo Efficacy of Tubulysin Conjugate 12 in HT29 Xenograft Tumors.
Cells, HT-29 cells (4.25×10^6) were subcutaneously injected into the shoulders of 5-6 week old female nu/nu mice. Tumors were measured in two perpendicular directions thrice weekly with vernier calipers and their volumes were calculated as 0.5×L×W^2, where L is the longest axis (in millimeters), and W is the axis perpendicular to L (in millimeters). Dosing of Conjugate 12 was initiated when the subcutaneous tumors reached ˜100-275 mm^3 in volume. Dosing solutions were prepared in saline and filtered through a 0.22 μm filter. Solutions were administered via tail vein injection or intraperitoneally. […] Injections were given every two days and the mice were weighed concurrently. […]

The subject of a further series is HT-29 cells. In kind it is cell-based. As to conditions: 2 hr incubation, then 66 hr in fresh medium, FIG. 8, read-out: IC50 (3H-thymidine incorporation). Here is the method: General Procedure for In Vitro Cytotoxicity Determination by ^3H-Thymidine Uptake Assays
HT-29 cells were seeded on amine-coated 24-well plates and allowed to form monolayers. The spent medium in each well was replaced with fresh medium (0.5 mL) containing various concentrations of Conjugate 12. After incubating for 2 hr at 37° C., cells were rinsed three times with fresh medium and then incubated an additional 66 hr at 37° C. in fresh medium. Spent medium in each well was again replaced with fresh medium (0.5 mL) containing ^3H-thymidine (1 μCi/ml) and the cells were incubated for an additional 4 hr. After washing the cells three times with medium, they were dissolved in 0.5 mL of 0.25 M NaOH. Thymidine incorporation was then determined by counting cell-associated radioactivity using a scintillation counter (PACKARD, PACKARD INSTRUMENT COMPANY). The IC50 value was derived from a plot of the percent of ^3H-thymidine incorporation versus log concentration using Graph Pad Prism 4 and TABLECURVE 2D software.

The subject of a further series is A549 xenografts. The series can be described thus: In vivo efficacy of Conjugate 14 in A549 xenografts. The arrangement: species or system mice. As to conditions: 1.25 umole/kg TIW for three weeks, FIG. 17. Here is the method:
as §1
Cells, HT-29 cells (4.25×10^6) were subcutaneously injected into the shoulders of 5-6 week old female nu/nu mice. Tumors were measured in two perpendicular directions thrice weekly with vernier calipers and their volumes were calculated as 0.5×L×W^2, where L is the longest axis (in millimeters), and W is the axis perpendicular to L (in millimeters). Dosing of Conjugate 12 was initiated when the subcutaneous tumors reached ˜100-275 mm^3 in volume. Dosing solutions were prepared in saline and filtered through a 0.22 μm filter. Solutions were administered via tail vein injection or intraperitoneally. Each mouse received 2 μmol/kg Conjugate 12 per injection. Injections were given every two days and the mice were weighed concurrently.
Similar experiments were performed using Conjugate 14 with A549 cells instead of HT-29 cells (FIGS. 17 and 18).

Take `CCCC(=O)OCN(C(=O)[C@@H](NC(=O)C1CCCCN1C)[C@@H](C)CC)[C@H](C[C@@H](OC(C)=O)c1nc(C(=O)N[C@@H](Cc2ccc(O)cc2)C[C@H](C)C(=O)NNC(=O)OCCSSC[C@H](NC(=O)[C@H](CC(=O)O)NC(=O)[C@@H](N)CNC(=O)CCOCCOCCNC(=O)CCS(=O)(=O)c2c(F)c(F)c(S(N)(=O)=O)c(F)c2NC2CCCCCCC2)C(=O)O)cs1)C(C)C` (some centres unmarked) [Conjugate 12]: the gross toxicity entry in the series with HT-29 xenografts (HT-29 xenograft mice, 2 μmol/kg per injection) was “no gross toxicity was observed”. The loss of weight result in the series with HT-29 xenografts (HT-29 xenograft mice, 2 μmol/kg per injection, FIG. 12) is listed as “less than 10%”. In addition, the body mass loss result with HT-29 xenografts (HT-29 xenograft mice, 2 umol/kg, at 6 days into the treatment, FIG. 12) is recorded as “not more than 10%”. Further, the tumor response entry in the series on HT-29 xenografts (HT-29 xenografts, 2 μmol/kg per injection, every two days (TIW), n=3, FIG. 11) is “tumors shrinking; also recorded: halted tumor growth and the xenograft is in the process of shrinking”. For the same compound, the IC50 in the series with HT-29 cells was found to be 5.04 nM.

In the case of `CCCC(=O)OCN(C(=O)[C@@H](NC(=O)C1CCCCN1C)[C@@H](C)CC)[C@H](C[C@@H](OC(C)=O)c1nc(C(=O)N[C@@H](Cc2ccc(O)cc2)C[C@H](C)C(=O)NNC(=O)OCCSSC[C@H](NC(=O)[C@H](CC(=O)O)NC(=O)[C@@H](N)CNC(=O)C(CC(=O)O)NC(=O)C(CCCNC(=N)N)NC(=O)C(CC(=O)O)NC(=O)CCOCCOCCNC(=O)CCS(=O)(=O)c2c(F)c(F)c(S(N)(=O)=O)c(F)c2NC2CCCCCCC2)C(=O)O)cs1)C(C)C` (some centres unmarked) [Conjugate 14], in the series with HT-29 xenografts (HT-29 xenograft mice, 1.5, 1, 0.5, 0.25 μmole/kg, n=1 each, FIG. 14), the “whole body mass, other doses” value was “acceptable body mass profiles”. The “whole body mass, highest dose” value in the series with HT-29 xenografts (HT-29 xenograft mice, highest dose (2 μmole/kg), n=1, FIG. 14) is “loss of body mass”. Besides, the “tumor reemergence, starting day” value in the series with HT-29 xenografts (HT-29 xenografts, 1 umole/kg, n=1, FIG. 13) amounted to 16 days. Also, the tumor response entry is “stable tumor regression and stable disease until treatment cessation” in the series on HT-29 xenografts (HT-29 xenografts, 1.25 umole/kg TIW for three weeks, n=5, FIG. 15); “stable tumor regression and stable disease until treatment cessation” with A549 xenografts. The “tumor response, dose escalation” value with HT-29 xenografts (HT-29 xenografts, doses 2, 1.5, and 1 umole/kg, n=1 for each dose, FIG. 13) was “shrank tumors”.
